The text below walks through data of paper PMC11436757, “BRCA2 stabilises RAD51 and DMC1 nucleoprotein filaments through a conserved interaction mode” (Nature Communications, 2024).

“Also recorded” adds a separate entry of the source. No end group written: not given here.

For experiment [1], the target named is T1, DMC1 ΔN (Homo sapiens, UniProt Q14565).
T1 construct: DMC1 ΔN (83-340) were cloned into pHAT4; His6 (TEV-cleavable) (N, cleaved yes); made in house; host or cells: E. coli BL21 (DE3)
T1 sequence (Q14565 83-340): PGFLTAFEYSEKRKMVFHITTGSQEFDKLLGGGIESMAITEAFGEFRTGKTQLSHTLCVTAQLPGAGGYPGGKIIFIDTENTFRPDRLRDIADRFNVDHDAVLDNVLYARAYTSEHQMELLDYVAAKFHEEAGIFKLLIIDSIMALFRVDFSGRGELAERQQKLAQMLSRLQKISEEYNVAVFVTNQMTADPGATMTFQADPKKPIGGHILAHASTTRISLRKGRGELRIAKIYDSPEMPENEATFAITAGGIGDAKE
Description: Microscale thermophoresis (MST), BRCA2 peptides and DMC1 ΔN. As to conditions: for Kd: MST from initial fluorescence, labelled DMC1 ΔN 150 nM, 10 mM HEPES pH 8.0, 150 mM NaCl, 0.05 % Tween-20, ~22 °C, mean, n = 3 independent experiments. It counts as binding. As for the experimental part:
(§1) DMC1 ΔN and DMC1 ΔN loop mutant were labelled in 10 mM HEPES pH 8.0, 150 mM NaCl with an amine reactive fluorescent dye (MonolithTM Protein Labelling Kit BLUE-NHS, Nanotemper GmbH). A serial dilution of titrant (peptide) was prepared in 10 mM HEPES pH 8.0, 150 mM NaCl, 0.05 % Tween-20. The concentration of labelled DMC1 ΔN or DMC1 ΔN loop mutant were constant at 150 nM and the concentration of the interacting peptide was titrated in 1:1 dilutions starting from 750 µM. An equal volume (10 µl) of the serial dilution and of the diluted labelled DMC1 were mixed and loaded in glass capillaries (MonolithTM NT.115 MST Premium Coated Capillaries, Nanotemper GmbH). The initial fluorescence and the thermophoretic mobility were measured on a Monolith NT.115 system (NanoTemper Technologies). The excitation power was 45 % and MST power was 60 % at room temperature (~22 °C). Laser on and off times were set at 5 and 30 seconds, respectively. Data analysis was performed with NT Affinity Analysis software.
As a change in initial fluorescence was detected, SDS denaturation (SD) tests were performed according to the manufacturer’s instructions to determine whether these changes were ligand-induced and whether the data could therefore be used to derive affinity measurements. Briefly, 7 µl of the samples containing the three highest and three lowest concentrations of peptide were mixed with 7 µl of denaturation buffer (4 % SDS, 40 mM DTT). After incubating each for 5 minutes at 95 °C to denature the proteins and subject to brief centrifugation, the samples were loaded onto Premium Coated Capillaries and their initial fluorescence measurements recorded. […] Initial fluorescence readings were used to derive binding affinities.

Experiment [2] has as its system RAD51 ΔN loop mutant. Description: Amylose pull-down of RAD51 loop mutant with MBP-BRCA2 fusions. As to conditions: RAD51 with DMC1's PhePP-binding loops; MBP-BRCA2 fusion. The source says:
(§2) For affinity pulldown experiments, MBP-fusions of BRCA2 fragments (Ex14, amino-acids 2387-2420, Ex14-Tr, amino acids 2401-2414, Ex27, amino acids 3270-3315, BRC4, amino acids 1519-1551) were cloned into pMAT11 vectors[54] and co-expressed with DMC1 ΔN, DMC1 ΔN loop mutant (in which DMC1 amino acids 147-GAGGYPG-153 and 178-NVDHDA-183 were replaced by the cognate sequences of RAD51 148-IDRGGGE-154 and 179-GLSGSD-184), RAD51 ΔN, RAD51 ΔN loop mutant (the reverse switch of DMC1 ΔN loop mutant), and RAD51. MBP-fusions and complexes were purified through amylose affinity chromatography.

The target in experiment [3] is T1, DMC1 ΔN. The experiment is described as follows: Amylose pull-down of DMC1 ΔN with MBP-BRCA2 fusions. It counts as binding. Particulars: recombinant co-expression with MBP-BRCA2 fusion.
Excerpt: as §2

The target in experiment [4] is T2, DMC1 ΔN loop mutant (Homo sapiens, UniProt Q14565, A148D/A183D/D180S/D182S/G147I/G149R/G153E/H181G/N178G/P152G/V179L/Y151G).
T2 construct: DMC1 ΔN (83-340) were cloned into pHAT4; made in house
T2 sequence (Q14565 83-340 G147I/A148D/G149R/Y151G/P152G/G153E/N178G/V179L/D180S/H181G/D182S/A183D limits assumed): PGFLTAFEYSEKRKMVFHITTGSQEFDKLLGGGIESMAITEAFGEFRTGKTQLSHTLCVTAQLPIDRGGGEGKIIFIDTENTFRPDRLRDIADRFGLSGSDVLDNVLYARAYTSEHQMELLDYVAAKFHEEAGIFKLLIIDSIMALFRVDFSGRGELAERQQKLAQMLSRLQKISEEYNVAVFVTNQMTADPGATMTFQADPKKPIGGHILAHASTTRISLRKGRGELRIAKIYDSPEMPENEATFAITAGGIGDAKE
The experiment is described as follows: Microscale thermophoresis (MST), BRCA2 peptide and DMC1 ΔN loop mutant. The class given is binding. Particulars: labelled DMC1 ΔN loop mutant 150 nM; pH 8.0. As for the experimental part: as §1, with “The excitation power was 45 % and MST power was 60 % at room temperature (~22 °C). Laser on and off times were set at 5 and 30 seconds, respectively. Data analysis was performed with NT Affinity Analysis software.” left out
As a change in initial fluorescence was detected, SDS denaturation (SD) tests were performed according to the manufacturer’s instructions to determine whether these changes were ligand-induced and whether the data could therefore be used to derive affinity measurements. […] After incubating each for 5 minutes at 95 °C to denature the proteins and subject to brief centrifugation, the samples were loaded onto Premium Coated Capillaries and their initial fluorescence measurements recorded. […] Initial fluorescence readings were used to derive binding affinities.

In experiment [5] the target is T2, DMC1 ΔN loop mutant. The experiment is described as follows: Amylose pull-down of DMC1 ΔN loop mutant with MBP-BRCA2 fusions. The class given is binding. As to conditions: recombinant co-expression with MBP-BRCA2 fusion.
Excerpt: as §2

For experiment [6], the system named is DMC1 ΔN V179E. Description: Amylose pull-down of His-DMC1 ΔN V179E with MBP-BRCA2 fusions. It counts as binding, human. As to conditions: lysates mixed; MBP-BRCA2 fusion; 20 mM Tris pH 8.0, 500 mM KCl, 2 mM DTT. The protocol: For affinity experiments involving DMC1 ΔN V179E and F85E, MBP-fusions of BRCA2 fragments (Ex14, amino-acids 2387-2420, Ex14-Tr, amino acids 2401-2414, BRC4, amino acids 1519-1551) were cloned into pMAT11 vectors and DMC1 ΔN mutants (V179E or F85E) were cloned into pHAT4 vectors. Lysates of bacterial cultures expressing His6-DMC1 mutants or MBP-BRCA2 constructs were mixed, and complexes were purified through amylose affinity chromatography in 20 mM Tris pH 8.0, 500 mM KCl, 2 mM DTT and eluted using 30 mM D-maltose.

Experiment [7] deals with RAD51 ΔN. The experiment is described as follows: Amylose pull-down of RAD51 ΔN with MBP-BRCA2 fusions. It counts as binding. As to conditions: recombinant co-expression with MBP-BRCA2 fusion.
Excerpt: as §2

Experiment [8] deals with RAD51-ssDNA filaments. As to conditions: ref [33],[34]; cited from earlier work. An excerpt:
BRCA2 interacts with RAD51 and DMC1 recombinases through BRC repeats and PhePP motifs (Fig. 1a)[21],[25]–[28]. The eight BRC repeats, located within BRCA2’s central exon 11 region, bind to RAD51 and DMC1 with various affinities[25],[29],[30].

Substance “ATRNEKMRHLITTGRPTKVFVPPFKTKSHFHRVE [Ex14]” came in with a Kd in experiment [1] of 30.4 µM. For the same substance, in experiment [1] (MST, DMC1 ΔN), the “affinity of Ex14 relative to Ex27” value is recorded as “over threefold higher affinity than Ex27”. Moreover, the binding in pull-down entry in experiment [2] is reported as “failed to”; in experiment [3] it was “bind”; in experiment [5], “abolished its ability to bind Ex14; also recorded: blocked Ex14-”; in experiment [6], “failed to interact; also recorded: blocked its ability to bind Ex14”; in experiment [7], “binds selectively to BRCA2 Ex27 rather than Ex14”. The “interaction by MST (in words)” value in experiment [4] was “not detectable; also recorded: abolished its ability to bind Ex14”.

As for “Ex27: BRCA2 exon 27 PhePP peptide, amino acids 3270-3315 (ALDFLSRLPLPPPVSPICTFVSPAAQKAFQPPRSCGTKYETPIKKK; UniProt P51587 3270-3315, looked up, fragment)”, in experiment [1], the Kd is > 96.2 µM. Besides, in experiment [8], the “protection of nucleoprotein filaments from BRC-mediated disruption” value is “protects nucleoprotein filaments from BRC-mediated disruption”. Besides, the binding in pull-down result in experiment [2] is reported as “failed to”; in experiment [3], “not”; in experiment [5], “failed to bind; also recorded: failed to interact with Ex27”; in experiment [7] it was “binds selectively”.
